Data taken from ChEMBL document CHEMBL1201862, “PubChem BioAssay data set” (2004).
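Grown in 96-well plates, cells were treated for 48 hours with each compound at five concentrations. Insufficient inhibition: endpoint recorded as highest concentration tested. GI50 marks 50% less growth.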 Active and inactive are the calls of the source. No stated cut-off is given here; in the data, active = GI50 up to about 1.1 µM and inactive = higher.

Legend:
Assay in all cases: DTP human tumour cell line panel, 48 h
[1] = test system: SR
[2] = test system: SK-OV-3
[3] = test system: RXF 393
[4] = test system: U-251
[5] = test system: MDA-N
[6] = test system: SF-268
[7] = test system: OVCAR-4
[8] = test system: NCI-H23
[9] = test system: KM12
[10] = test system: A549
[11] = test system: CAKI-1
[12] = test system: A498
[13] = test system: 786-0
[14] = test system: DU-145
[15] = test system: RPMI-8226
[16] = test system: HT-29
[17] = test system: SN12C
[18] = test system: HCT-116
[19] = test system: UACC-62
[20] = test system: SK-MEL-28
[21] = test system: MDA-MB-231
[22] = test system: ACHN
[23] = test system: MCF7
[24] = test system: IGROV-1
[25] = test system: EKVX
[26] = test system: HCT-15
[27] = test system: NCI/ADR-RES
[28] = test system: SNB-75
[29] = test system: OVCAR-3
[30] = test system: UACC-257
[31] = test system: MDA-MB-435
[32] = test system: MOLT-4
[33] = test system: NCI-H522
[34] = test system: NCI-H460
[35] = test system: Malme-3M
[36] = test system: K562
[37] = test system: HOP-62
[38] = test system: SK-MEL-5
[39] = test system: BT-549
[40] = test system: CCRF-CEM
[41] = test system: OVCAR-8
[42] = test system: PC-3
[43] = test system: HL-60
[44] = test system: SNB-19
[45] = test system: LOX IMVI
[46] = test system: SF-539
[47] = test system: NCI-H226
[48] = test system: SW-620
[49] = test system: M14
[50] = test system: T47D
[51] = test system: COLO 205
[52] = test system: HCC 2998
[53] = test system: SK-MEL-2
[54] = test system: SF-295
[55] = test system: OVCAR-5
[56] = test system: Hs-578T
[57] = test system: UO-31
[58] = test system: TK-10

SMILES: NC(=O)C(=CNC(N)=S)C(N)=O
- GI50 [1]: > 100 µM (inactive)
- GI50 [2]: > 100 µM (inactive)
- GI50 [3]: > 100 µM (inactive)
- GI50 [4]: > 100 µM (inactive)
- GI50 [5]: > 100 µM (inactive)
- GI50 [6]: > 100 µM (inactive)
- GI50 [7]: > 100 µM (inactive)
- GI50 [8]: > 100 µM (inactive)
- GI50 [9]: > 100 µM (inactive)
- GI50 [10]: > 100 µM (inactive)
- GI50 [11]: > 100 µM (inactive)
- GI50 [12]: > 100 µM (inactive)
- GI50 [13]: > 100 µM (inactive)
- GI50 [14]: > 100 µM (inactive)
- GI50 [15]: > 100 µM (inactive)
- GI50 [16]: > 100 µM (inactive)
- GI50 [17]: > 100 µM (inactive)
- GI50 [18]: > 100 µM (inactive)
- GI50 [19]: > 100 µM (inactive)
- GI50 [20]: > 100 µM (inactive)
- GI50 [21]: > 100 µM (inactive)
- GI50 [22]: > 100 µM (inactive)
- GI50 [23]: > 100 µM (inactive)
- GI50 [24]: > 100 µM (inactive)
- GI50 [25]: > 100 µM (inactive)
- GI50 [26]: > 100 µM
- GI50 [27]: > 100 µM (inactive)
- GI50 [28]: > 100 µM (inactive)
- GI50 [29]: > 100 µM (inactive)
- GI50 [30]: > 100 µM (inactive)
- GI50 [31]: > 100 µM (inactive)
- GI50 [32]: > 100 µM (inactive)
- GI50 [33]: > 100 µM (inactive)
- GI50 [34]: > 100 µM (inactive)
- GI50 [35]: > 100 µM (inactive)
- GI50 [36]: > 100 µM (inactive)
- GI50 [37]: > 100 µM (inactive)
- GI50 [38]: > 100 µM (inactive)
- GI50 [39]: > 100 µM (inactive)
- GI50 [40]: > 100 µM (inactive)
- GI50 [41]: > 100 µM (inactive)
- GI50 [42]: > 100 µM (inactive)
- GI50 [43]: > 100 µM (inactive)
- GI50 [44]: > 100 µM (inactive)
- GI50 [45]: > 100 µM (inactive)
- GI50 [46]: > 100 µM (inactive)
- GI50 [47]: > 100 µM (inactive)
- GI50 [48]: > 100 µM (inactive)
- GI50 [49]: > 100 µM (inactive)
- GI50 [50]: > 100 µM (inactive)
- GI50 [51]: > 100 µM (inactive)
- GI50 [52]: > 100 µM (inactive)
- GI50 [53]: > 100 µM (inactive)
- GI50 [54]: > 100 µM (inactive)
- GI50 [55]: > 100 µM (inactive)
- GI50 [56]: > 100 µM (inactive)
- GI50 [57]: 60 µM (inactive)

SMILES: COC(=O)C1Cc2ccc3c(c2C1=O)CCCC3 (centres undefined)
- GI50 [1]: 26.7 µM (inactive)
- GI50 [2]: > 100 µM (inactive)
- GI50 [4]: 61.9 µM (inactive)
- GI50 [5]: > 100 µM (inactive)
- GI50 [6]: > 100 µM (inactive)
- GI50 [7]: > 100 µM (inactive)
- GI50 [8]: 74.5 µM (inactive)
- GI50 [9]: > 100 µM (inactive)
- GI50 [10]: > 100 µM (inactive)
- GI50 [11]: > 100 µM (inactive)
- GI50 [12]: > 100 µM (inactive)
- GI50 [13]: > 100 µM (inactive)
- GI50 [14]: > 100 µM (inactive)
- GI50 [15]: 24.7 µM (inactive)
- GI50 [58]: > 100 µM (inactive)
- GI50 [16]: > 100 µM (inactive)
- GI50 [17]: > 100 µM (inactive)
- GI50 [18]: 39.7 µM (inactive)
- GI50 [19]: 81.1 µM (inactive)
- GI50 [20]: > 100 µM (inactive)
- GI50 [21]: 83 µM (inactive)
- GI50 [22]: > 100 µM (inactive)
- GI50 [23]: 73.6 µM (inactive)
- GI50 [24]: > 100 µM (inactive)
- GI50 [25]: 70.5 µM (inactive)
- GI50 [26]: 69.5 µM
- GI50 [27]: > 100 µM (inactive)
- GI50 [28]: 89.7 µM (inactive)
- GI50 [29]: 80.7 µM (inactive)
- GI50 [30]: > 100 µM (inactive)
- GI50 [31]: > 100 µM (inactive)
- GI50 [32]: 21.3 µM (inactive)
- GI50 [33]: > 100 µM (inactive)
- GI50 [34]: > 100 µM (inactive)
- GI50 [35]: > 100 µM (inactive)
- GI50 [36]: 22.2 µM (inactive)
- GI50 [37]: 89.7 µM (inactive)
- GI50 [38]: 68.2 µM (inactive)
- GI50 [39]: > 100 µM (inactive)
- GI50 [40]: 39.2 µM (inactive)
- GI50 [41]: 92.3 µM (inactive)
- GI50 [42]: 26.2 µM (inactive)
- GI50 [43]: > 100 µM (inactive)
- GI50 [44]: > 100 µM (inactive)
- GI50 [45]: 38.1 µM (inactive)
- GI50 [46]: > 100 µM (inactive)
- GI50 [47]: 92.9 µM (inactive)
- GI50 [48]: 86.5 µM (inactive)
- GI50 [49]: > 100 µM (inactive)
- GI50 [50]: 23.2 µM (inactive)
- GI50 [51]: > 100 µM (inactive)
- GI50 [52]: > 100 µM (inactive)
- GI50 [53]: > 100 µM (inactive)
- GI50 [54]: 71.4 µM (inactive)
- GI50 [55]: > 100 µM (inactive)
- GI50 [56]: > 100 µM (inactive)
- GI50 [57]: 61.4 µM (inactive)

SMILES: COC(=O)OC[C@H]1O[C@@H](n2cc(C)c(=O)[nH]c2=O)CC1OC(=O)OC (some centres undefined)
- GI50 [1]: 61.7 µM (inactive)
- GI50 [2]: > 100 µM (inactive)
- GI50 [3]: > 100 µM (inactive)
- GI50 [4]: > 100 µM (inactive)
- GI50 [5]: > 100 µM (inactive)
- GI50 [6]: > 100 µM (inactive)
- GI50 [7]: > 100 µM (inactive)
- GI50 [8]: > 100 µM (inactive)
- GI50 [9]: > 100 µM (inactive)
- GI50 [10]: > 100 µM (inactive)
- GI50 [12]: > 100 µM (inactive)
- GI50 [13]: > 100 µM (inactive)
- GI50 [14]: > 100 µM (inactive)
- GI50 [15]: > 100 µM (inactive)
- GI50 [58]: > 100 µM (inactive)
- GI50 [16]: > 100 µM (inactive)
- GI50 [17]: > 100 µM (inactive)
- GI50 [19]: > 100 µM (inactive)
- GI50 [20]: > 100 µM (inactive)
- GI50 [21]: > 100 µM (inactive)
- GI50 [22]: > 100 µM (inactive)
- GI50 [23]: > 100 µM (inactive)
- GI50 [24]: > 100 µM (inactive)
- GI50 [25]: > 100 µM (inactive)
- GI50 [26]: > 100 µM
- GI50 [27]: > 100 µM (inactive)
- GI50 [28]: 95.3 µM (inactive)
- GI50 [29]: > 100 µM (inactive)
- GI50 [31]: > 100 µM (inactive)
- GI50 [32]: > 100 µM (inactive)
- GI50 [33]: > 100 µM (inactive)
- GI50 [34]: > 100 µM (inactive)
- GI50 [35]: > 100 µM (inactive)
- GI50 [36]: > 100 µM (inactive)
- GI50 [37]: > 100 µM (inactive)
- GI50 [38]: > 100 µM (inactive)
- GI50 [39]: > 100 µM (inactive)
- GI50 [40]: > 100 µM (inactive)
- GI50 [41]: > 100 µM (inactive)
- GI50 [42]: > 100 µM (inactive)
- GI50 [43]: > 100 µM (inactive)
- GI50 [44]: > 100 µM (inactive)
- GI50 [45]: > 100 µM (inactive)
- GI50 [46]: > 100 µM (inactive)
- GI50 [47]: > 100 µM (inactive)
- GI50 [48]: > 100 µM (inactive)
- GI50 [49]: > 100 µM (inactive)
- GI50 [50]: > 100 µM (inactive)
- GI50 [51]: > 100 µM (inactive)
- GI50 [52]: > 100 µM (inactive)
- GI50 [53]: > 100 µM (inactive)
- GI50 [54]: > 100 µM (inactive)
- GI50 [55]: > 100 µM (inactive)
- GI50 [56]: > 100 µM (inactive)
- GI50 [57]: > 100 µM (inactive)
